For eleven molecules, GI50 and TGI results are on record in PubChem BioAssay (NCI).

Each structure is given as a SMILES string.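 Where inhibition never reached the appropriate level, the endpoint shown equals the highest concentration tested. Otherwise, values were interpolated linearly from a five-concentration, 48-hour dose response in 96-well plates. GI50: concentration for 50% inhibition of growth. TGI denotes the concentration required for complete inhibition of growth.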

Holding throughout (experiment): inhibition of tumour cell growth, NCI panel, 48 h
The subject of experiment [1] is DU-145 prostate.
The test system of experiment [2] is SF-295 CNS.
Experiment [3] relates to SK-OV-3 ovarian.
The subject of experiment [4] is HCC-2998 colon.
The subject of experiment [5] is ACHN renal.
Experiment [6] concerns MDA-MB-435.
Experiment [7] relates to M14 melanoma.
For experiment [8], the system named is MDA-MB-231 breast.
Experiment [9] deals with HOP-62 NSCLC.

As for `O=C(c1ccccc1)C(Br)C(Br)c1ccccc1` (stereo not drawn), the GI50 in experiment [1] was 3.08 µM; in experiment [2] it was 11.9 µM; in experiment [3] it was 15.3 µM; in experiment [4], 13.3 µM; in [5], 1.86 µM; in experiment [6], 2.91 µM. The GI50 is 2.01 µM in [7] and 14 µM in experiment [8]. Besides, the TGI in [1] turned out to be 9.63 µM; in experiment [2] it was 27.7 µM; in experiment [3] it was 28.8 µM; in experiment [4], 26.3 µM; in [5] it was 3.38 µM; in [6], 11.2 µM. Moreover, the TGI in experiment [7] stood at 4.12 µM; in experiment [8], 29 µM.
As to `O=C(/C=C(\[O-])c1ccccc1)CCCCCCC(=O)/C=C(\[O-])c1ccccc1.O=C(/C=C(\[O-])c1ccccc1)CCCCCCC(=O)/C=C(\[O-])c1ccccc1.O=C(/C=C(\[O-])c1ccccc1)CCCCCCC(=O)/C=C(\[O-])c1ccccc1.[Nd+3].[Nd+3]`, the GI50 was 40.2 µM in experiment [2]; above 50 µM in [3]; above 50 µM in experiment [9]; above 50 µM in experiment [4]; above 50 µM in experiment [5]; above 50 µM in experiment [7]. Also, the TGI in [2], in experiment [3], in [9], in experiment [4], in experiment [5] and in experiment [7] was above 50 µM throughout.
Regarding `CN(C)c1ccc(N=C2C=CC(=C(C#N)C#N)c3ccccc32)cc1`, the TGI in experiment [1] is 3.34 µM; in experiment [2] it was 14.9 µM; in [3], 6.53 µM; in [9], 15.3 µM; in [4], 0.63 µM; in experiment [5], 10.6 µM. In addition, the values for the TGI in [6], in experiment [7] and in [8] were 0.191 µM, 8.79 µM and 2.66 µM, respectively.
Turning to `O=C(C(=O)c1cc(Br)ccc1O)c1cc(Br)ccc1O`, the GI50 is 3.66 µM in [1]; 1.98 µM in [2]; 4.42 µM in experiment [3]; 6.51 µM in experiment [9]; 4.75 µM in experiment [4]; 3.75 µM in experiment [5]. Also, the results for the GI50 in [6], in experiment [7] and in experiment [8] were 2.84 µM, 4.96 µM and 5.33 µM, respectively. For the same molecule, the TGI was found to be 18.5 µM in experiment [1]; 6.27 µM in experiment [2]; 30.2 µM in experiment [3]; 34.9 µM in experiment [9]; 18.6 µM in [4]; 50 µM in experiment [5]. Further, the figures for the TGI in experiment [6], in experiment [7] and in [8] were 9.25 µM, 20.1 µM and 23 µM, respectively.
With `COc1ccc(-c2cc(-c3ccco3)c(C#N)c(=O)[nH]2)cc1`, the TGI in experiment [2] is above 100 µM; in experiment [3], 72.2 µM; in experiment [9], 72.1 µM; in experiment [4], above 100 µM; in experiment [5] it was above 100 µM; in experiment [7], above 100 µM.
Take `Cc1nc(-n2nc(-c3ccccc3)cc2-c2ccccc2)sc1C(=O)/C=C/c1ccccc1`: the TGI in experiment [2], in [3], in [9], in experiment [4] and in [5] was above 100 µM throughout.
`N#CCCN(CCC#N)c1ccc(C=Nc2ccc(F)cc2)cc1`: the TGI in experiment [1], in [2], in experiment [3], in [9], in experiment [4] and in [5] was above 100 µM throughout. The TGI in experiment [6], in [7] and in experiment [8] was above 100 µM each time.
For the molecule `COc1cc2cc3c(c(O)c2c(O)c1-c1c(OC)cc2cc4c(c(O)c2c1O)C(=O)O[C@H](C)C4)C(=O)O[C@H](C)C3`, the GI50 is 15.9 µM in [1]; 24.5 µM in [2]; 26.5 µM in experiment [3]; 26.9 µM in [9]; 33 µM in experiment [4]; 24.7 µM in experiment [5]. Besides, the GI50 in [6] is 17.8 µM; in experiment [7] it was 25.7 µM; in experiment [8], 16.2 µM. Moreover, the TGI is 31.2 µM in [1]; 78.1 µM in [2]; 84 µM in [3]; 62.7 µM in experiment [9]; above 100 µM in experiment [4]; 66.7 µM in [5]. Also, the values for the TGI in [6], in [7] and in experiment [8] were 33.8 µM, 57 µM and 42 µM, respectively.
Turning to `O=C1CNN=C(Cn2nc(-c3ccccc3)c3ccccc3c2=O)N1`, the TGI in [2], in experiment [3], in experiment [9], in [4], in [5] and in [7] was above 100 µM in each case.
Regarding `c1cncc(C2ONC3=NCCN32)c1` (stereo not drawn), the GI50 was 15.8 µM in experiment [1]; 33.3 µM in experiment [2]; 26.2 µM in [3]; 30 µM in [9]; 27.1 µM in experiment [4]; 8 µM in [5]. Besides, the figures for the GI50 in [6], in experiment [7] and in experiment [8] were 50.8 µM, 64.3 µM and 32.3 µM, respectively. For the same molecule, the TGI in experiment [1] was above 100 µM; in experiment [2], above 100 µM; in [3] it was above 100 µM; in experiment [9], 91.1 µM; in experiment [4], 94.5 µM; in experiment [5] it was 38.3 µM. Moreover, the TGI in experiment [6], in experiment [7] and in experiment [8] was above 100 µM in each case.
On to `COc1ccc(C(=O)O/N=C2/CCCCC2CN(C)C)cc1` (stereo not drawn), for which the TGI in experiment [2], in [3], in experiment [9], in [4], in [5] and in experiment [7] was above 100 µM in each case.
